Test results: paper PMC5218480 (PLoS ONE, 2017)

Test system: MV-4-11 cells
Assay: Gene expression microarray analysis (Affymetrix PrimeView) and GSEA
Assay type: cell-based, human
Design: RFU PODN (11730768_x_at) / Fold change /veh PODN (11730768_x_at) / RFU LINC00158 (11744669_a_at) / Fold change /veh LINC00158 (11744669_a_at) / RFU DUSP10 (11751237_a_at) / Fold change /veh DUSP10 (11751237_a_at) / RFU ID3 (11757404_x_at) / Fold change /veh ID3 (11757404_x_at) / RFU PLEKHG5 (11737974_s_at) / Fold change /veh PLEKHG5 (11737974_s_at) / RFU LRRC4B (11730491_at) / Fold change /veh LRRC4B (11730491_at) / RFU GIMAP4 (11747438_a_at) / Fold change /veh GIMAP4 (11747438_a_at) / RFU KRT8 (11758183_x_at) / Fold change /veh KRT8 (11758183_x_at) / RFU CNN1 (11734310_a_at) / Fold change /veh CNN1 (11734310_a_at) / RFU VPS37D (11726825_at) / Fold change /veh VPS37D (11726825_at) / RFU C10orf10 (11716522_x_at) / Fold change /veh C10orf10 (11716522_x_at) / RFU KIR2DL2 /// KIR2DL4 /// KIR2DL5A /// KIR2DL5B /// KIR2DS1 /// KIR2DS2 /// KIR2DS3 /// KIR2DS4 /// KIR3DL3 /// KIR3DL3 /// KIR3DS1 (11738374_at) / Fold change /veh KIR2DL2 /// KIR2DL4 /// KIR2DL5A /// KIR2DL5B /// KIR2DS1 /// KIR2DS2 /// KIR2DS3 /// KIR2DS4 /// KIR3DL3 /// KIR3DL3 /// KIR3DS1 (11738374_at) / RFU C1QL1 (11718748_at) / Fold change /veh C1QL1 (11718748_at) / RFU TMPRSS4 (11747572_a_at) / Fold change /veh TMPRSS4 (11747572_a_at) / RFU HAMP (11756126_x_at) / Fold change /veh HAMP (11756126_x_at) / RFU RNFT2 (11725882_a_at) / Fold change /veh RNFT2 (11725882_a_at) / RFU NR4A2 (11747474_a_at) / Fold change /veh NR4A2 (11747474_a_at) / RFU ABCC12 (11746883_a_at) / Fold change /veh ABCC12 (11746883_a_at) / RFU TMEM136 (11760407_x_at) / Fold change /veh TMEM136 (11760407_x_at) / RFU CLDN22 /// WWC2 (11732394_at) / Fold change /veh CLDN22 /// WWC2 (11732394_at) / RFU HLA-DPB1 (11760878_x_at) / Fold change /veh HLA-DPB1 (11760878_x_at) / RFU SPINT1 (11716480_a_at) / Fold change /veh SPINT1 (11716480_a_at) / RFU GAP43 (11754022_s_at) / Fold change /veh GAP43 (11754022_s_at) / RFU A4GNT (11735810_at) / Fold change /veh A4GNT (11735810_at) / RFU PRB3 (11715151_x_at) / Fold change /veh PRB3 (11715151_x_at) / RFU TUBB4B (11761932_at) / Fold change /veh TUBB4B (11761932_at) / RFU CAPN14 (11732068_a_at) / Fold change /veh CAPN14 (11732068_a_at) / RFU TMCC2 (11721928_a_at) / Fold change /veh TMCC2 (11721928_a_at) / RFU IRGQ (11745062_a_at) / Fold change /veh IRGQ (11745062_a_at) / RFU FAM174B (11720279_a_at) / Fold change /veh FAM174B (11720279_a_at) / RFU TMPRSS4 (11748680_a_at) / Fold change /veh TMPRSS4 (11748680_a_at) / RFU FAM212B (11763350_a_at) / Fold change /veh FAM212B (11763350_a_at) / RFU PLEKHG5 (11743358_a_at) / Fold change /veh PLEKHG5 (11743358_a_at) / RFU ZSCAN30 (11745921_a_at) / Fold change /veh ZSCAN30 (11745921_a_at) / RFU CMKLR1 (11741424_a_at) / Fold change /veh CMKLR1 (11741424_a_at) / RFU LOC101060620 /// MAPK8IP1 (11723275_at) / Fold change /veh LOC101060620 /// MAPK8IP1 (11723275_at) / RFU SPTSSB (11747773_x_at) / Fold change /veh SPTSSB (11747773_x_at) / RFU PRSS12 (11739890_at) / Fold change /veh PRSS12 (11739890_at) / RFU BIN1 (11741810_x_at) / Fold change /veh BIN1 (11741810_x_at) / RFU WNT11 (11732464_a_at) / Fold change /veh WNT11 (11732464_a_at) / RFU C10orf10 (11716521_a_at) / Fold change /veh C10orf10 (11716521_a_at) / RFU C5orf56 (11738089_at) / Fold change /veh C5orf56 (11738089_at) / RFU CYB561 (11721691_x_at) / Fold change /veh CYB561 (11721691_x_at) / RFU ANKRD19P (11752326_a_at) / Fold change /veh ANKRD19P (11752326_a_at) / RFU OR2T12 /// OR2T33 /// OR2T8 (11738714_s_at) / Fold change /veh OR2T12 /// OR2T33 /// OR2T8 (11738714_s_at) / RFU VCAN (11748164_a_at) / Fold change /veh VCAN (11748164_a_at) / RFU JSRP1 (11732532_at) / Fold change /veh JSRP1 (11732532_at) / RFU KRTAP10-11 (11738290_x_at) / Fold change /veh KRTAP10-11 (11738290_x_at) / RFU MYO3A (11730013_a_at) / Fold change /veh MYO3A (11730013_a_at) / RFU EBF3 (11725865_a_at) / Fold change /veh EBF3 (11725865_a_at) / RFU CAMK2N1 (11719241_x_at) / Fold change /veh CAMK2N1 (11719241_x_at) / RFU C5orf56 (11738088_a_at) / Fold change /veh C5orf56 (11738088_a_at) / RFU OLFML3 (11715873_a_at) / Fold change /veh OLFML3 (11715873_a_at) / RFU LOC100653217 /// NTM (11731650_a_at) / Fold change /veh LOC100653217 /// NTM (11731650_a_at) / RFU MAPK11 (11762145_a_at) / Fold change /veh MAPK11 (11762145_a_at) / RFU FIZ1 (11724087_x_at) / Fold change /veh FIZ1 (11724087_x_at) / RFU OASL (11726364_x_at) / Fold change /veh OASL (11726364_x_at) / RFU SOX15 (11748057_x_at) / Fold change /veh SOX15 (11748057_x_at) / RFU CD79A (11719716_a_at) / Fold change /veh CD79A (11719716_a_at) / RFU HIST1H1D (11736915_at) / Fold change /veh HIST1H1D (11736915_at) / RFU CASKIN2 (11723855_a_at) / Fold change /veh CASKIN2 (11723855_a_at) / RFU LOC730098 (11760151_x_at) / Fold change /veh LOC730098 (11760151_x_at) / RFU OR4N2 (11742367_at) / Fold change /veh OR4N2 (11742367_at) / RFU PRRT2 (11749266_a_at) / Fold change /veh PRRT2 (11749266_a_at) / RFU SNX32 (11753110_a_at) / Fold change /veh SNX32 (11753110_a_at) / RFU CDHR5 (11726645_a_at) / Fold change /veh CDHR5 (11726645_a_at) / RFU RCAN1 (11760418_a_at) / Fold change /veh RCAN1 (11760418_a_at) / RFU FAM167A (11723789_a_at) / Fold change /veh FAM167A (11723789_a_at) / RFU FAM26E (11764081_at) / Fold change /veh FAM26E (11764081_at) / RFU ISYNA1 (11749810_s_at) / Fold change /veh ISYNA1 (11749810_s_at) / RFU ACY1 (11761880_at) / Fold change /veh ACY1 (11761880_at) / RFU 11764098_at / Fold change /veh 11764098_at / RFU SAMD14 (11745864_x_at) / Fold change /veh SAMD14 (11745864_x_at) / RFU NPB (11741838_a_at) / Fold change /veh NPB (11741838_a_at) / RFU TMPRSS6 (11731388_a_at) / Fold change /veh TMPRSS6 (11731388_a_at) / RFU KRTAP10-2 (11738614_at) / Fold change /veh KRTAP10-2 (11738614_at) / RFU ARHGAP8 /// PRR5-ARHGAP8 (11727945_x_at) / Fold change /veh ARHGAP8 /// PRR5-ARHGAP8 (11727945_x_at) / RFU KRTAP5-7 /// NADSYN1 (11734609_at) / Fold change /veh KRTAP5-7 /// NADSYN1 (11734609_at) / RFU RASL12 (11751679_a_at) / Fold change /veh RASL12 (11751679_a_at) / RFU CDKN2B (11736163_a_at) / Fold change /veh CDKN2B (11736163_a_at) / RFU PRF1 (11729649_at) / Fold change /veh PRF1 (11729649_at) / RFU, ZNF638 /// ZNF638-IT1 / Fold change vs veh, ZNF638 /// ZNF638-IT1 / RFU, PANK3 / Fold change vs veh, PANK3 / RFU, SH3YL1 / Fold change vs veh, SH3YL1 / RFU, ZEB2 / Fold change vs veh, ZEB2 / RFU, NRIP1 / Fold change vs veh, NRIP1 / RFU, PTTG1IP / Fold change vs veh, PTTG1IP / RFU, CAPN2 / Fold change vs veh, CAPN2 / RFU, MED14 / Fold change vs veh, MED14 / RFU, SNORA58 / Fold change vs veh, SNORA58 / RFU, C1orf63 / Fold change vs veh, C1orf63 / RFU, LRRFIP1 / Fold change vs veh, LRRFIP1 / RFU, NDUFAF7 / Fold change vs veh, NDUFAF7 / RFU, SLC12A2 / Fold change vs veh, SLC12A2 / RFU, IBTK / Fold change vs veh, IBTK / RFU, ESF1 / Fold change vs veh, ESF1 / Fold change vs veh, TMEM50B / RFU, TAOK1 / Fold change vs veh, TAOK1 / RFU, ACBD3 / Fold change vs veh, ACBD3 / RFU, TMA16 / Fold change vs veh, TMA16 / RFU, RWDD3 / Fold change vs veh, RWDD3 / RFU, BCAT1 / Fold change vs veh, BCAT1 / RFU, EDEM3 / Fold change vs veh, EDEM3 / RFU, TMEM33 / Fold change vs veh, TMEM33 / RFU, WDR75 / Fold change vs veh, WDR75 / RFU, AHCTF1 / Fold change vs veh, AHCTF1 / RFU, TFRC / Fold change vs veh, TFRC / RFU, ZDHHC17 / Fold change vs veh, ZDHHC17 / RFU, NOM1 / Fold change vs veh, NOM1 / RFU, ARL8B / Fold change vs veh, ARL8B / RFU, ZBTB11 / Fold change vs veh, ZBTB11 / RFU, TAMM41 / Fold change vs veh, TAMM41 / RFU, KIAA1704 /// LOC100996395 / Fold change vs veh, KIAA1704 /// LOC100996395 / RFU, ING1 / Fold change vs veh, ING1 / RFU, TRMT61B / Fold change vs veh, TRMT61B / RFU, FUBP3 / Fold change vs veh, FUBP3 / RFU, TP53 / Fold change vs veh, TP53 / RFU, TNKS2 / Fold change vs veh, TNKS2 / RFU, ZFP14 / Fold change vs veh, ZFP14 / RFU, ACTR2 / Fold change vs veh, ACTR2 / RFU, PPP3R1 / Fold change vs veh, PPP3R1 / RFU, PIK3R1 / Fold change vs veh, PIK3R1 / RFU, HNRNPA1 / Fold change vs veh, HNRNPA1 / RFU, RNF170 / Fold change vs veh, RNF170 / RFU, ZNF28 / Fold change vs veh, ZNF28 / RFU, RNGTT / Fold change vs veh, RNGTT / RFU, OGT / Fold change vs veh, OGT / RFU, BRD1 / Fold change vs veh, BRD1 / RFU, MARS / Fold change vs veh, MARS / RFU, ZNF655 / Fold change vs veh, ZNF655 / RFU, FAHD1 / Fold change vs veh, FAHD1 / RFU, BDP1 / Fold change vs veh, BDP1 / RFU, LRRCC1 / Fold change vs veh, LRRCC1 / RFU, ARID1A / Fold change vs veh, ARID1A / RFU, ZNF146 / Fold change vs veh, ZNF146 / RFU, ZNF330 / Fold change vs veh, ZNF330 / RFU, GPN3 / Fold change vs veh, GPN3 / RFU, C9orf123 / Fold change vs veh, C9orf123 / RFU, N4BP2L2 / Fold change vs veh, N4BP2L2 / RFU, ARFIP1 / Fold change vs veh, ARFIP1 / RFU, FAM179B / Fold change vs veh, FAM179B / RFU, BCL10 / Fold change vs veh, BCL10 / RFU, UHRF1BP1L / Fold change vs veh, UHRF1BP1L / RFU, BET1 / Fold change vs veh, BET1 / RFU, CNOT2 / Fold change vs veh, CNOT2 / RFU, ZNF268 / Fold change vs veh, ZNF268 / Fold change vs veh, ZNF507 / RFU, DGCR2 / Fold change vs veh, DGCR2 / RFU, WDSUB1 / Fold change vs veh, WDSUB1 / Fold change vs veh, HSP90B1 /// MIR3652 / RFU, ADSS / Fold change vs veh, ADSS / RFU, GK / Fold change vs veh, GK / RFU, ZNF148 / Fold change vs veh, ZNF148 / RFU, TAF9 / Fold change vs veh, TAF9 / RFU, SLC1A5 / Fold change vs veh, SLC1A5 / RFU, SLMO2 / Fold change vs veh, SLMO2 / RFU, ABCC4 / Fold change vs veh, ABCC4 / RFU, LOC101060439 /// RAP1B / Fold change vs veh, LOC101060439 /// RAP1B / RFU, RFX7 / Fold change vs veh, RFX7 / RFU, GTPBP10 / Fold change vs veh, GTPBP10 / RFU, CNEP1R1 / Fold change vs veh, CNEP1R1 / RFU, BIVM-ERCC5 /// ERCC5 / Fold change vs veh, BIVM-ERCC5 /// ERCC5 / RFU, ILF3 / Fold change vs veh, ILF3 / RFU 11762660_at / Fold change /veh 11762660_at / RFU VCAN (11757783_s_at) / Fold change /veh VCAN (11757783_s_at) / RFU DDX43 (11728927_at) / Fold change /veh DDX43 (11728927_at) / RFU KRT8 (11758188_x_at) / Fold change /veh KRT8 (11758188_x_at) / RFU NKD1 (11759106_at) / Fold change /veh NKD1 (11759106_at) / RFU SRD5A1 (11742802_a_at) / Fold change /veh SRD5A1 (11742802_a_at) / RFU TPSAB1 /// TPSB2 (11721975_s_at) / Fold change /veh TPSAB1 /// TPSB2 (11721975_s_at) / RFU GSTM3 (11746129_a_at) / Fold change /veh GSTM3 (11746129_a_at) / RFU IL23R (11737362_x_at) / Fold change /veh IL23R (11737362_x_at) / RFU TMEM51 (11727254_a_at) / Fold change /veh TMEM51 (11727254_a_at) / RFU PIWIL2 (11732686_x_at) / Fold change /veh PIWIL2 (11732686_x_at) / RFU ORM1 (11744905_x_at) / Fold change /veh ORM1 (11744905_x_at) / RFU CCDC152 (11743942_at) / Fold change /veh CCDC152 (11743942_at) / RFU ECM1 (11717891_a_at) / Fold change /veh ECM1 (11717891_a_at) / RFU IL23R (11748794_a_at) / Fold change /veh IL23R (11748794_a_at) / RFU TNFAIP8L3 (11732012_x_at) / Fold change /veh TNFAIP8L3 (11732012_x_at) / RFU MBOAT4 (11741988_at) / Fold change /veh MBOAT4 (11741988_at) / RFU 11764193_at / Fold change /veh 11764193_at / RFU TMEM53 (11763286_at) / Fold change /veh TMEM53 (11763286_at) / RFU MAGEB2 (11727129_at) / Fold change /veh MAGEB2 (11727129_at) / RFU TMEM200A (11744735_a_at) / Fold change /veh TMEM200A (11744735_a_at) / RFU CCDC152 (11751479_a_at) / Fold change /veh CCDC152 (11751479_a_at) / RFU FAM211A (11726209_a_at) / Fold change /veh FAM211A (11726209_a_at) / RFU RGS16 (11746705_a_at) / Fold change /veh RGS16 (11746705_a_at) / RFU VCAN (11755009_s_at) / Fold change /veh VCAN (11755009_s_at) / RFU RHOB (11743442_s_at) / Fold change /veh RHOB (11743442_s_at) / RFU RGS16 (11720943_a_at) / Fold change /veh RGS16 (11720943_a_at) / RFU RGS16 (11720944_at) / Fold change /veh RGS16 (11720944_at) / RFU, VPS4B / Fold change vs veh, VPS4B / RFU, CREB1 / Fold change vs veh, CREB1 / RFU, DNAJC13 / Fold change vs veh, DNAJC13 / RFU, GNAQ / Fold change vs veh, GNAQ / RFU, CDK5R1 / Fold change vs veh, CDK5R1 / RFU, ZRANB3 / Fold change vs veh, ZRANB3 / RFU, CUL4A / Fold change vs veh, CUL4A / RFU, CCNY / Fold change vs veh, CCNY / RFU, UFL1 / Fold change vs veh, UFL1 / RFU, COG3 / Fold change vs veh, COG3 / RFU, DIAPH2 / Fold change vs veh, DIAPH2 / RFU, SKA2 / Fold change vs veh, SKA2 / RFU, AFF3 / Fold change vs veh, AFF3 / RFU, LMF1 / Fold change vs veh, LMF1 / RFU, IPO11 / Fold change vs veh, IPO11 / RFU, DFFB / Fold change vs veh, DFFB / RFU, FOXP1 / Fold change vs veh, FOXP1 / RFU, CARD8 / Fold change vs veh, CARD8 / RFU, STRN3 / Fold change vs veh, STRN3 / RFU, ADK / Fold change vs veh, ADK / RFU, RASSF2 / Fold change vs veh, RASSF2 / RFU, WIPF1 / Fold change vs veh, WIPF1 / RFU, LARP1B / Fold change vs veh, LARP1B / RFU, RASA1 / Fold change vs veh, RASA1 / RFU, RB1 / Fold change vs veh, RB1 / RFU, PPFIA1 / Fold change vs veh, PPFIA1 / RFU, MAT2A / Fold change vs veh, MAT2A / RFU, CCT5 / Fold change vs veh, CCT5 / RFU, WDR92 / Fold change vs veh, WDR92 / RFU, CUX1 / Fold change vs veh, CUX1 / RFU, TTC7A / Fold change vs veh, TTC7A / RFU, TMEM135 / Fold change vs veh, TMEM135 / RFU, DEPTOR / Fold change vs veh, DEPTOR / RFU, CPM / Fold change vs veh, CPM / RFU, DNAJB6 / Fold change vs veh, DNAJB6 / RFU, CACNA2D3 / Fold change vs veh, CACNA2D3 / RFU, DTX4 / Fold change vs veh, DTX4 / RFU, TFCP2 / Fold change vs veh, TFCP2 / RFU, GMCL1 /// GMCL1P1 / Fold change vs veh, GMCL1 /// GMCL1P1 / RFU, AEBP2 / Fold change vs veh, AEBP2 / RFU, SNHG1 /// SNORD22 /// SNORD25 /// SNORD26 /// SNORD27 /// SNORD28 /// SNORD29 /// SNORD31 / Fold change vs veh, SNHG1 /// SNORD22 /// SNORD25 /// SNORD26 /// SNORD27 /// SNORD28 /// SNORD29 /// SNORD31 / Fold change (Aza/veh), C12orf56 (ProbeSet 11735607_a_at) / Fold change (ACY-1035/veh), C12orf56 (ProbeSet 11735607_a_at) / Fold change (Aza/veh), FGFR1OP (ProbeSet 11751329_s_at) / Fold change (ACY-1035/veh), FGFR1OP (ProbeSet 11751329_s_at) / Fold change (Aza/veh), VPS36 (ProbeSet 11739960_a_at) / Fold change (ACY-1035/veh), VPS36 (ProbeSet 11739960_a_at) / RFU SYPL1 (11715823_x_at) / Fold change /veh SYPL1 (11715823_x_at) / RFU IGFBP7 (11715501_s_at) / Fold change /veh IGFBP7 (11715501_s_at) / RFU REEP3 (11722064_at) / Fold change /veh REEP3 (11722064_at) / RFU IGLL1 (11728026_x_at) / Fold change /veh IGLL1 (11728026_x_at): dose or concentration left out as unconfirmed
Settings: MV-4-11 cells, 48 hours

Nc1ncn([C@@H]2O[C@H](CO)[C@@H](O)[C@H]2O)c(=O)n1 [azacitidine]
Fold change /veh C10orf10 (11716522_x_at): 1.15
